The subject of the experiment is human skin fibroblasts. The experiment is described as follows: migration of human skin fibroblasts in the 3D collagen gel assay. The class given is cell-based. As to conditions: relative to control fibroblasts in the absence of test compound, FIG. 3. From the text:
The results were plotted and are shown on the graph depicted in FIG. 3 in which compound (IV) is referred to as BDP 1. The data are expressed as fold-stimulation of migration relative to control fibroblasts in the absence of test compound. The range of base-line (control) migration is indicated by the horizontal dotted lines.

The record followed here is patent publication US8962615B2, “Cell migration modulating compounds” (University of Dundee, priority 2005, dated 2015).

For `COC(=O)CC1Nc2c(cccc2OCCC(C)C)CN(C)C1=O` (stereo not shown) [Compound (IV)], the “fold-stimulation of migration relative to control fibroblasts” value is “stimulated target cell migration with a bell-shaped dose-response similar in potency and profile to that of IGDS”.
